Assay results as given in ChEMBL document CHEMBL1201862, “PubChem BioAssay data set” (2004).
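Five concentrations, 48 hours, 96-well plates. GI50: concentration for 50% inhibition of growth.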 Activity calls are given as the source filed them. Cut-off read from the data, not from the text of the source: active = GI50 up to about 1.1 µM and inactive = higher. Square brackets hold non-standard residues; d marks the D form. Peptide text beside a SMILES is read from it.

How the values were obtained:
Test in all cases: growth of human tumour cells (NCI), 48 h
HCT-116 = tested on: HCT-116
NCI-H522 = tested on: NCI-H522
Malme-3M = tested on: Malme-3M
MCF7 = tested on: MCF7
HOP-62 = tested on: HOP-62
K562 = tested on: K562
SF-295 = tested on: SF-295
LOX IMVI = tested on: LOX IMVI
EKVX = tested on: EKVX
KM-20L2 = tested on: KM-20L2
NCI-H460 = tested on: NCI-H460
KM12 = tested on: KM12
SK-MEL-2 = tested on: SK-MEL-2
MDA-N = tested on: MDA-N
PC-3 = tested on: PC-3
TK-10 = tested on: TK-10
SR = tested on: SR
ACHN = tested on: ACHN
MDA-MB-435 = tested on: MDA-MB-435

SMILES: O=C(CCN1CCOCC1)C(=Cc1ccccc1)C(=O)CCN1CCOCC1
- GI50 (HCT-116): 2.29 µM (inactive)
- GI50 (NCI-H522): 1.5 µM (inactive)
- GI50 (Malme-3M): 2.45 µM (inactive)
- GI50 (MCF7): 3.19 µM (inactive)
- GI50 (HOP-62): 21.2 µM (inactive)
- GI50 (K562): 0.836 µM (active)
- GI50 (SF-295): 15.6 µM (inactive)
- GI50 (LOX IMVI): 1.93 µM (inactive)
- GI50 (EKVX): 2.21 µM (inactive)
- GI50 (KM-20L2): 9.16 µM (inactive)
- GI50 (NCI-H460): 12.8 µM (inactive)
- GI50 (KM12): 5.01 µM (inactive)
- GI50 (SK-MEL-2): 8.34 µM (inactive)

SMILES: CC(C)Cc1ccc(C(C)/C=C2\CCC(CN3CCOCC3)C2=O)cc1 (centres undefined)
- GI50 (MDA-N): 12.1 µM (inactive)
- GI50 (HCT-116): 5.26 µM (inactive)
- GI50 (NCI-H522): 5.62 µM (inactive)
- GI50 (Malme-3M): 13.5 µM (inactive)
- GI50 (PC-3): 12.3 µM (inactive)
- GI50 (MCF7): 4.31 µM (inactive)
- GI50 (HOP-62): 11.7 µM (inactive)
- GI50 (K562): 1.92 µM (inactive)
- GI50 (TK-10): 5.82 µM (inactive)
- GI50 (SF-295): 15.3 µM (inactive)
- GI50 (LOX IMVI): 2.33 µM (inactive)
- GI50 (EKVX): 18 µM (inactive)
- GI50 (KM-20L2): 16.3 µM (inactive)
- GI50 (NCI-H460): 14.8 µM (inactive)
- GI50 (SR): 2.08 µM (inactive)
- GI50 (KM12): 5.47 µM (inactive)
- GI50 (ACHN): 16 µM (inactive)
- GI50 (MDA-MB-435): 6.92 µM (inactive)
- GI50 (SK-MEL-2): 16.6 µM (inactive)

SMILES: COC(=O)N/N=C(\C)c1sc(-c2nc(C)c(/C(C)=N/NC(=O)OC)s2)nc1C
- GI50 (HCT-116): > 100 µM (inactive)
- GI50 (NCI-H522): 41.7 µM (inactive)
- GI50 (Malme-3M): > 100 µM (inactive)
- GI50 (HOP-62): > 100 µM (inactive)
- GI50 (K562): > 100 µM (inactive)
- GI50 (TK-10): > 100 µM (inactive)
- GI50 (SF-295): > 100 µM (inactive)
- GI50 (LOX IMVI): 64.1 µM (inactive)
- GI50 (EKVX): > 100 µM (inactive)
- GI50 (KM-20L2): > 100 µM (inactive)
- GI50 (NCI-H460): > 100 µM (inactive)
- GI50 (SR): 20.7 µM (inactive)
- GI50 (KM12): > 100 µM (inactive)
- GI50 (ACHN): > 100 µM (inactive)
- GI50 (SK-MEL-2): > 100 µM (inactive)

SMILES: O=C(O)c1cc2c(ncc3c(=O)n(-c4ccccc4)[nH]c32)s1
- GI50 (HCT-116): > 100 µM (inactive)
- GI50 (NCI-H522): > 100 µM (inactive)
- GI50 (Malme-3M): > 100 µM (inactive)
- GI50 (HOP-62): > 100 µM (inactive)
- GI50 (K562): > 100 µM (inactive)
- GI50 (TK-10): > 100 µM (inactive)
- GI50 (LOX IMVI): > 100 µM (inactive)
- GI50 (EKVX): > 100 µM (inactive)
- GI50 (KM-20L2): > 100 µM (inactive)
- GI50 (NCI-H460): > 100 µM (inactive)
- GI50 (SR): > 100 µM (inactive)
- GI50 (KM12): > 100 µM (inactive)
- GI50 (ACHN): > 100 µM (inactive)
- GI50 (SK-MEL-2): > 100 µM (inactive)

SMILES: CC(C)C[C@H](NC(=O)[C@H](CC(C)C)NC(=O)[C@@H](Cc1c[nH]c2ccccc12)NC(=O)[C@H](Cc1ccccc1)NC(=O)[C@@H](Cc1c[nH]c2ccccc12)NC(=O)[C@H](CCC(N)=O)NC(=O)[C@@H](CCC(N)=O)NC(=O)[C@@H]1CCCN1C(=O)[C@@H](CCCCN)NC(=O)[C@H]1CCCN1C(=O)[C@H](N)CCCN=C(N)N)C(N)=O (H-[dR][dP][dK]P[dQ]Q[dW]F[dW]LL-NH2)
- GI50 (HCT-116): > 100 µM (inactive)
- GI50 (NCI-H522): > 100 µM (inactive)
- GI50 (Malme-3M): > 31.6 µM (inactive)
- GI50 (MCF7): > 100 µM (inactive)
- GI50 (HOP-62): > 100 µM (inactive)
- GI50 (K562): > 100 µM (inactive)
- GI50 (SF-295): 63.5 µM (inactive)
- GI50 (LOX IMVI): > 100 µM (inactive)
- GI50 (EKVX): > 100 µM (inactive)
- GI50 (KM-20L2): > 100 µM (inactive)
- GI50 (NCI-H460): 64.7 µM (inactive)
- GI50 (KM12): > 100 µM (inactive)
- GI50 (SK-MEL-2): > 100 µM (inactive)
